Experimental data published in US7342018B2, “Urokinase inhibitors and uses thereof” (Wilex AG, priority 1998, dated 2008).

Columns and labels:
[1] = biological target: Thrombin (Homo sapiens, UniProt P00734); experiment: In vitro inhibition of serine proteases: thrombin; type: biochemical
Description: Ki values were determined according to Dixon by linear regression using a computer program.

[2] = biological target: Plasma kallikrein (Homo sapiens, UniProt P03952); experiment: In vitro inhibition of serine proteases: plasma kallikrein; type: biochemical
Description: To determine the inhibitory activity, 200 μl of Tris buffer (0.05 mol/l, containing the inhibitor, 0.154 mol/l NaCl, 5% ethanol pH 8.0), 25 μl of substrate (Pefachrome UK or Bz-βAla-Gly-Arg-pNA in H2O; Pentapharm Ltd., Basle, Switzerland) and 50 μl of sc-urokinase (Ribosepharm GmbH, Haan, Germany) were incubated at 25° C. After 3 min the reaction was stopped by adding 25 μl of acetic acid (50%), and the absorption at 405 nm was determined by means of a Microplate Reader (MR 5000, Dynatech, Denkendorf, Germany). Ki values were determined according to Dixon by linear regression using a computer program. The Ki values are the mean values of at least three determinations with a standard deviation of less than 25%.
The inhibition activities of the enzymes used were determined according to the principle described in Example 3.

[3] = test system: BN-472 breast cancer tumor; experiment: Breast cancer model in rats (Example 7); type: in vivo; conditions: for average tumor weights at the end of the treatment, reduced to % of vehicle-treated control / mean weights of the axillary lymph nodes, reduced to % of control / number of lung foci, reduced to % of control: 1 mg/kg daily
Description: 10-25 mm^3 of BN-472 breast cancer tumor fragments from rats were transplanted into female brown Norwegian rats from 6 to 7 weeks old, subcutaneously and orthotopically under the subcutaneous fat of the mammary gland (Day 0). The treatment of the animals was started intraperitoneally 24 hours after tumor inoculation. Each group consisted of eight animals. The control group received only the injection solution (100 μl of a 10% ethanol/saline (0.9% NaCl) solution). A dose of 1 mg/kg body weight was intraperitoneally administered on a daily basis to the comparative group of the naphthyl derivative. (B) and to the therapy group of the inventive uPA inhibitor (A). The treatment was carried out over a period of 4 weeks.
The dimensions of the subcutaneous tumors and the weight of the animals were determined weekly. At the end of the treatment the animals were sacrificed and tumor weights, organ weights and the number of metastases in relevant tissues were determined.
The experiments described in sections A and B were repeated with the inhibitor administered in a different way. For this, the inhibitor was administered subcutaneously in the breast carcinoma model (n=9) and intraperitoneally in the pancreatic adenocarcinoma model (n=8) without changing the daily dose. The results of these repeat experiments corresponded to the results already discussed, both in tendency and extent.

[4] = test system: rat breast tumor BN472; experiment: BN472 rat breast tumor model, metastatic lung foci (Example 10); type: in vivo
Text: In detail, the syngeneic transplantable spontaneously metastasizing rat breast tumor BN472 was used as a model. BN-472 transplantable rat mammary carcinoma used in this study was originally found spontaneously developed in a retired breeder female Brown Norway rat (Kort et al. J. Nat. Cancer Inst. 1984, 72: 7709-7713). The data presented here focus on the reduction in the number of metastatic lung foci as endpoint.
FIG. 7 depicts the anti-metastatic efficacy of WX-UK1 in a setting implying surgical resection of the orthotopically growing tumor at a defined size and various time points of therapy onset relative to resection. After orthotopic implantation of BN472 fragment under the mammary fat pad the primary tumors were allowed to grow to a fixed palpable size (4×4 mm). The treatments groups (n=18) were allocated in a way to ensure homogeneous group composition with respect to tumor residence periods (range 3-14 d) prior group allocation. Primary tumors were surgically removed 4 days after having reached the fixed size. Onsets of treatments with 0.3 mg/kg s.c. daily were group specifically either on the day of reaching the fixed size (PO)mor four (P4), eight (P8), or twelve (P112) days thereafter. […] Starting on day 3 after tumor inoculation treatment groups (n=15) received WX-UK1 at weekly doses of […] either by daily application of 0.3 mg/kg (0.3 mg/kg o.d.), by application of 1 mg/kg twice per week (1 mg/kg t.w.) or by dosing 2 mg/kg once per week (2 mg/kg o.w.). The anti-metastatic efficacy previously established with daily treatments was retained when WX-UK1 was administered only twice or once per week at the same weekly dose.
Treatment was initiated on day 3 after tumor inoculation. b) Groups of rats (n=8) were treated with 5-FU at 20 or 40 mg/kg i.v. once weekly either as mono-therapy or in combination with WX-UK1 i.p. treatments at 1 mg/kg twice weekly or with WX-UK1 alone. Indeed, WX-UK1 was efficacious at reducing lung foci numbers when combined with these standard therapeutics.

[5] = test system: BN-472 rat mammary carcinoma; experiment: BN-472 rat mammary carcinoma model, single agent and combination with cytotoxics (Example 11)
Description: WX-UK1 was dissolved in 5% w/v of D-mannitol to the appropriate dosage and administered once daily or twice weekly either subcutaneously (s.c.) or intraperitonally (i.p.).
Epirubicin (0.75-3 mg/kg body wight), paclitaxel (5-7.5 mg/kg) or 5-FU (20 and 40 mg/kg) was given once weekly by i.v. injection into the external jugular vein.
Control rats received the vehicle 5% w/v of D-mannitol once daily s.c.
A donor rat bearing a tumor of 20×20 mm was sacrificed, the tumor harvested ant the cortex part was sliced into cubes of approximately 10 mm^3 and the transplated orthotopically under the mammary fad pads of female Brown Norway rats.
Treatment was started three or six days (5-FU experiment) after tumor inoculation. Each treatment group consisted of 15 to 21 rats.
Tumor load is plotted as the average±standard error of the mean (SEM).
Tumor, organ weights as well as lung foci counts are presented in Box-Whisker graphs. […] Whiskers extend to the extreme lower 5th and upper 95th percentiles of values. Dots represent individual data.
P-values represent significance levels of pairwise comparisons of treatment groups versus vehicle control. For combination therapy experiments the P-values for the comparison of a cytostatic mono-therapy versus the combination therapy is given.

Sequence of Plasma kallikrein (P03952 20-638, species assumed): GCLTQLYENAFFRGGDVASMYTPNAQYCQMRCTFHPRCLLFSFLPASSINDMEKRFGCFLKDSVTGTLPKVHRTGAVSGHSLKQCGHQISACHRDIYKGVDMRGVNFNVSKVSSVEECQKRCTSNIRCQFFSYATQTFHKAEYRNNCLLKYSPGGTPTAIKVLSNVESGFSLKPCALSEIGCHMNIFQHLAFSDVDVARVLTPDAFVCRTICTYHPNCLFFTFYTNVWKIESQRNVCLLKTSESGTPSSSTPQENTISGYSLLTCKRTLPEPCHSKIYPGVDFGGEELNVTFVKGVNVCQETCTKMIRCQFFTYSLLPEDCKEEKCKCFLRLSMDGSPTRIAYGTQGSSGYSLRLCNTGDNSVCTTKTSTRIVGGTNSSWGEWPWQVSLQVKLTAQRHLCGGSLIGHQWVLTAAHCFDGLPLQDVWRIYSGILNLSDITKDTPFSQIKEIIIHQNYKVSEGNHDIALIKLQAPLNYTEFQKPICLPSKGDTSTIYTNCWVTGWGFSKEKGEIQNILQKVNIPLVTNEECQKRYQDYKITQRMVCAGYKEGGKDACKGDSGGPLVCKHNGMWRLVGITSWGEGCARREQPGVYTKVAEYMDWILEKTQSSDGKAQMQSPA

CCOC(=O)N1CCN(C(=O)[C@H](Cc2cccc(C(=N)N)c2)NS(=O)(=O)c2c(C(C)C)cc(C(C)C)cc2C(C)C)CC1.Cl [uPA inhibitor, Nα-2,4,6-Triisopropylphenylsulfonyl-(L)-3-amidinophenylalanine 4-ethoxycarbonylpiperazide hydrochloride]
Ki [1]: 0.49 µM
Ki [2]: 7.2 µM
weights of lung, liver, kidney and spleen ([3]; 1 mg/kg i.p. daily, 4 weeks, compared to control animals): unchanged
weight of the primary tumor ([3]; 1 mg/kg i.p. daily, 4 weeks, p=0.003 vs naphthyl derivative (B) and control): significant reduction
weight of the axillary lymph nodes ([3]; 1 mg/kg i.p. daily, 4 weeks, p=0.005 vs naphthyl derivative (B) and control): significant reduction
toxicity (body weight increase, organ weights) ([3]; breast and pancreatic tumor models in rats, inhibitor-treated vs vehicle-treated groups): no indications of any considerable toxicity
average tumor weights at the end of the treatment, reduced to % of vehicle-treated control ([3]; i.p.): 23%
mean weights of the axillary lymph nodes, reduced to % of control ([3]; i.p.): 27%
number of lung foci, reduced to % of control ([3]; i.p.): 9%
number of metastatic lung foci ([3]; rat breast cancer model, vs vehicle-treated controls): substantially reduced
sizes of subcutaneous tumors ([3]; rat pancreatic and breast cancer models, vs vehicle-treated controls): reduced
average tumor weights at the end of the treatment, reduced to % of vehicle-treated control ([3]; s.c.): 37%
mean weights of the axillary lymph nodes, reduced to % of control ([3]; s.c.): 48%
number of lung foci, reduced to % of control ([3]; s.c.): 32%
anti-metastatic activity with surgical resection of the primary tumor ([4]; 0.3 mg/kg s.c. daily, various onsets relative to resection (FIG. 7)): Anti-metastatic activity was obvious
anti-metastatic efficacy at prolonged dosing intervals ([4]; 1 mg/kg twice per week or 2 mg/kg once per week vs 0.3 mg/kg daily (FIG. 8)): retained
reducing lung foci numbers in combination ([4]; combined with epirubicin or 5-FU (FIG. 9)): efficacious
anti-metastatic effects in combination therapies (lymph nodes weight, macroscopic lung foci number) ([5]; WX-UK1 and the cytostatic agents): additional anti-metastatic effects
anti-metastatic effects in combination ([5]; combined with either epirubicin and in particular with 5-FU): statistically significant additive anti-metastatic effects
number of macroscopically detectable lung foci ([5]; compared with 5-FU): equally effective
number of macroscopically detectable lung foci ([5]; compared with epirubicin or paclitaxel): more effectively reduced
anti-tumor effects (tumor size development, final tumor weight) ([5]; daily administration): Dose-dependent anti-tumor effects
metastatic endpoints in combination ([5]; plus epirubicin, paclitaxel or 5-FU): tended to provide additive benefits
reducing lymphogenic spread as determined by lymph-node weight ([5]; single agent, compared with epirubicin, paclitaxel or 5-FU alone): more or similarly active
